Values of other authors, collected in patent US20160158203A1, “METHODS OF TREATMENT WITH BIOAVAILABLE COMPOSITIONS OF METAXALONE COMPRISING NONVOLATILE LIQUIDS” (priority 2004, published 2016).

Settings: as reviewed in U.S. Pat. Nos. 6,407,128 and 6,683,102

Structure (SMILES): Cc1cc(C)cc(OCC2CNC(=O)O2)c1 (stereo not shown) [metaxalone, 5-[(3,5-dimethylphenoxy)methyl]-2 oxazolidinone]
- Aqueous solubility (description): essentially water-insoluble
